The text below walks through data of patent publication US4175081A, “5-Substituted thiadiazole ureas” (priority 1977, dated 1979).

The test system of experiment [1] is Amaranth pigweed (PW). Briefly: Post-emergence herbicide test. In kind it is in vivo, Amaranthus retroflexus. The settings on record: 336 h, two weeks after treatment; for pest or weed control at 8966.8 g/ha: 8 lb/acre. Summed up: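 Visual injury or control ratings were made two weeks after spraying, with greenhouse watering by sub-irrigation only. Treatment was post-emergence, when pigweed seedlings had 1 or 2 true leaves, at 8 lbs active compound per acre (4 lbs/acre formulations also made) in a 38 gallons-per-acre spray volume.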

For experiment [2], the system named is Corn (CN). Briefly: Post-emergence herbicide test. It is filed as in vivo. The following applies: Zea mays, 336 h, two weeks after treatment; for pest or weed control at 8966.8 g/ha: 8 lb/acre. The procedure, abridged: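 Greenhouse seedlings grown in potting soil and sprayed post-emergence at 8 lbs compound/acre (formulations also made for 4 lbs/acre) in 38 gallons/acre spray volume. Watering by sub-irrigation only. Injury or control rated visually two weeks after treatment.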

Experiment [3] relates to Yellow foxtail grass (YF). Briefly: Post-emergence herbicide test. In kind it is in vivo, Setaria glauca. The following applies: Setaria, 336 h, two weeks after treatment; for pest or weed control at 8966.8 g/ha: 8 lb/acre. Summed up: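 Visual rating of injury/control made 2 weeks post-spray. Seedlings at a uniform growth stage in soil-filled pots received a hood spray of 8 lbs/acre active compound, 38 gallons/acre volume, with a 4 lbs/acre rate also formulated. Watering was by sub-irrigation only.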

The test system of experiment [4] is Bean (BN). The experiment can be described thus: Pre-emergence herbicide test. In kind it is in vivo, Phaseolus vulgaris var. Black Valentine. The settings on record: Phaseolus vulgaris, 336 h, 8 lb/acre, two weeks after treatment. Summed up:
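Visual injury/control ratings were taken two weeks post-spray on sub-irrigated Phaseolus vulgaris var. Black Valentine. Pots were sown a day before treatment. Pre-emergence spray delivered 8 lbs actual compound per acre (or 4 lbs/acre) at 38 gallons per acre.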

Experiment [5] deals with Cotton (CT). Briefly: Pre-emergence herbicide test. The following applies: Gossypium hirsutum, 336 h, 8 lb/acre, two weeks after treatment. It is filed as in vivo, Gossypium hirsutum var. DPL smooth leaf. The procedure, abridged:
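Visual injury/control ratings were taken at two weeks post-spray. Pots seeded a day earlier received compound pre-emergence at 8 lbs/acre, or 4 lbs/acre, in a 38 gallon/acre spray volume, and were then held in the greenhouse, watered only from below.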

Experiment [6] has as its system Turnip (TP). Briefly: Post-emergence herbicide test. In kind it is in vivo, Brassica sp. The following applies: Brassica rapa, post-emergence, 336 h, two weeks after treatment; for pest or weed control at 8966.8 g/ha: 8 lb/acre. The procedure, abridged: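 A greenhouse post-emergence herbicide test on turnip. Seeds were sown on the surface of potting soil in 3' plastic pots, lightly covered with screened soil and watered from below. Planting was timed so seedlings had 1 or 2 true leaves above the cotyledons at spraying, done in a hood with a fixed nozzle. Control or injury was scored by eye after two weeks.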

Experiment [7] concerns Bean (BN). Briefly: Post-emergence herbicide test. It is filed as in vivo, Phaseolus vulgaris var. Black Valentine. The settings on record: Phaseolus vulgaris, post-emergence, 336 h, two weeks after treatment; for pest or weed control at 8966.8 g/ha: 8 lb/acre. The procedure, abridged: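 Bean seedlings (Phaseolus vulgaris var. Black Valentine) were grown in potting soil in 3' pots until the primary leaves expanded. They were then sprayed under a hood with a removable belt and fixed nozzle, using 50 ml formulations. Afterward they were returned to the greenhouse and watered only by sub-irrigation. Percent control was judged visually two weeks after treatment.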

Experiment [8] concerns Turnip (TP). The experiment can be described thus: Pre-emergence herbicide test. In kind it is in vivo, Brassica sp. The settings on record: Brassica rapa, pre-emergence, 336 h; 8 lb/acre; two weeks after treatment. The procedure, abridged: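 In this pre-emergence greenhouse test, turnip was seeded on the surface of potting soil in 3' plastic pots, lightly covered with screened soil, and watered from below. One day later the pots were sprayed in a belt-fed spray hood. Watering continued only by sub-irrigation, and percent control was visually scored two weeks after treatment.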

Experiment [9] deals with Cotton (CT). Briefly: Post-emergence herbicide test. The settings on record: Gossypium hirsutum, post-emergence, 336 h, two weeks after treatment; for pest or weed control at 8966.8 g/ha: 8 lb/acre. In kind it is in vivo, Gossypium hirsutum var. DPL smooth leaf. The procedure, abridged: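 This greenhouse post-emergence test measured how well spray treatments controlled cotton. Seedlings of Gossypium hirsutum var. DPL smooth leaf, with expanded cotyledons and a first true leaf 1' in length, were sprayed with 50 ml formulations in a belt-fed spray hood. They were then returned to the greenhouse and watered only by sub-irrigation. Injury was scored visually as % control after two weeks.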

Experiment [10] has as its system variety of crops and weed species. Briefly: Pre- and post-emergence herbicide tests, overall assessment of Tables III-VI. In kind it is in vivo. The settings on record: data of Tables III-VI. The procedure: All crop and weed species were planted individually in 3' plastic pots containing potting soil. Four seeds each of corn, cotton, and snapbeans were seeded to a depth equal to the diameter of the seed. All other species were surface seeded and sprinkled with screened soil in an amount sufficient to cover the seed. Immediately after planting, all pots were watered by sub-irrigation in greenhouse trays. Pots for the pre-emergence phase were seeded one day before treatment.
Compounds were tested at rates of application equivalent to 8 lbs. of actual compound per acre in a spray volume of 38 gallons per acre. Spray hood constants required to deliver the above volume are as follows:
Two weeks after treatment, pre- and post-emergence injury or control was visually rated, and the results were as shown in the following tables. Pre-emergence data are provided in TABLE III and post-emergence data are provided in TABLE IV, for compounds having the formula illustrated in TABLE I. Correspondingly, pre-emergence and post-emergence data, respectively, are set forth in TABLES V AND VI, for compounds having the formula illustrated in TABLE II.

Experiment [11] deals with Barnyard grass (BG). The experiment can be described thus: Post-emergence herbicide test. It is filed as in vivo. The following applies: Echinochloa crus-galli, 336 h, two weeks after treatment; for pest or weed control at 8966.8 g/ha: 8 lb/acre. The procedure, abridged: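 Greenhouse pot-grown barnyard grass seedlings sprayed post-emergence at 8 lbs active compound per acre (some at 4 lbs/acre) in 38 gallons per acre, then sub-irrigated. Injury or control rated visually two weeks after treatment.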

The subject of experiment [12] is Johnson grass (JG). The experiment can be described thus: Post-emergence herbicide test. It is filed as in vivo, Sorgum helepense. The following applies: Sorghum halepense, 336 h, two weeks after treatment; for pest or weed control at 8966.8 g/ha: 8 lb/acre. The procedure, abridged: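 Visual injury or control scores taken 2 weeks after a post-emergence spray of pot-grown plants. Application was 8 lbs/acre (or 4 lbs/acre) in 38 gal/acre. Plants were held in the greenhouse with sub-irrigation only.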

In experiment [13] the test system is Crabgrass (CG). Briefly: Pre-emergence herbicide test. It is filed as in vivo, Digitaria sanquinalis. The settings on record: Digitaria sanguinalis, pre-emergence, 336 h; 8 lb/acre; two weeks after treatment. Summed up:
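Crabgrass (Digitaria sanquinalis) was surface seeded in 3' plastic pots of potting soil, covered with screened soil, and watered by sub-irrigation in greenhouse trays. Pots were seeded one day before spraying in a hood with a moving belt and fixed nozzle. Plants stayed in the greenhouse on sub-irrigation, and pre-emergence control was rated visually two weeks after treatment.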

In experiment [14] the test system is Crabgrass (CG). The experiment can be described thus: Post-emergence herbicide test. It is filed as in vivo, Digitaria sanquinalis. The settings on record: Digitaria sanguinalis, post-emergence, 336 h, two weeks after treatment; for pest or weed control at 8966.8 g/ha: 8 lb/acre. The procedure, abridged:
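Crabgrass (Digitaria sanquinalis) was surface seeded individually in 3' plastic pots of potting soil, covered with screened soil, and watered by sub-irrigation in greenhouse trays. Planting was staggered so seedlings reached the target stage together. Post-emergence sprays were applied in a hood with a removable belt and fixed nozzle, and control was visually rated two weeks after treatment.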

Experiment [15] concerns Barnyard grass (BG). The experiment can be described thus: Pre-emergence herbicide test. It is filed as in vivo. The following applies: Echinochloa crus-galli, 336 h, 8 lb/acre, two weeks after treatment. Summed up:
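Greenhouse pre-emergence spray test: pots seeded one day before treatment received compound at rates of 8 or 4 lb/acre (38 gal/acre). Visual injury/control scores for Echinochloa crus-galli taken at two weeks, with watering by sub-irrigation only.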

Experiment [16] relates to Corn (CN). Briefly: Pre-emergence herbicide test. In kind it is in vivo. The settings on record: Zea mays, 336 h, 8 lb/acre, two weeks after treatment. The procedure, abridged: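 Visual injury/control ratings were made 2 weeks post-spray on corn pots seeded (4 seeds, seed-diameter depth) the day before treatment. Application was a belt-hood spray of 38 gal/acre delivering 8 lbs active per acre, with a 4 lbs/acre rate also formulated. Watering was by sub-irrigation throughout.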

The test system of experiment [17] is Amaranth pigweed (PW). The experiment can be described thus: Pre-emergence herbicide test. It is filed as in vivo, Amaranthus retroflexus. The settings on record: 336 h, 8 lb/acre, two weeks after treatment. Summed up: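 Visual injury or control ratings were made at two weeks on pre-emergence pots, sub-irrigated in the greenhouse. Seeds were sown a day before a hood spray delivering 8 lbs/acre (or 4 lbs/acre) of compound in 38 gallons per acre.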

Experiment [18] relates to Johnson grass (JG). The experiment can be described thus: Pre-emergence herbicide test. It is filed as in vivo, Sorgum helepense. The settings on record: Sorghum halepense, 336 h, 8 lb/acre, two weeks after treatment. Summed up: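 Visual injury or control rating two weeks post-treatment, after pre-emergence spray of 8 or 4 lbs active per acre (38 gal/acre) onto pots sown the previous day. Greenhouse watering by sub-irrigation only.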

What is called pest or weed control is the degree to which the test organism was suppressed or injured, in per cent.

For the molecule `CNC(=O)Nc1nnc(SC)s1` [Example 26], the pest or weed control at 2241.7 g/ha in experiment [1] (2 lb/acre) stood at 90%; in experiment [6] (2 lb/acre), 60%; in experiment [7] (2 lb/acre), 100%; in experiment [9] (2 lb/acre) it was 100%; in [11] (2 lb/acre), 10%. Also, the pest or weed control at 4483.4 g/ha worked out at 100% in [1] (4 lb/acre); 100% in [2] (4 lb/acre); 100% in experiment [3] (4 lb/acre); 100% in experiment [6] (4 lb/acre); 100% in experiment [7] (4 lb/acre); 90% in experiment [9] (4 lb/acre). Besides, the values for the pest or weed control at 4483.4 g/ha in experiment [11] (4 lb/acre), in experiment [12] (4 lb/acre) and in experiment [14] (4 lb/acre) were 100%, 80% and 100%, respectively. Besides, the pest or weed control at 8966.8 g/ha in [1] stood at 100%; in experiment [2] it was 40%; in experiment [3] it was 90%; in experiment [4], 30%; in [5] it was 100%; in [6], 100%. Further, the pest or weed control at 8966.8 g/ha came out at 100% in experiment [7]; 30% in experiment [8]; 90% in experiment [9]; 60% in experiment [11]; 100% in [12]; 100% in experiment [13]. Besides, the pest or weed control at 8966.8 g/ha was 100% in [14], 50% in experiment [15] and 50% in experiment [16]. Further, the pest or weed control in [2] (2 lb/acre) amounted to 20%; in experiment [3] (2 lb/acre), 60%; in experiment [12] (2 lb/acre), 30%; in experiment [14] (2 lb/acre), 50%. The “herbicidal effectiveness / selectivity, in words” value in experiment [10] is “extremely effective when applied to a variety of crops and weed species”.
For `Cc1nnc(NC(=O)N(C)C)s1` [Example 19], the pest or weed control at 8966.8 g/ha in experiment [1] was 40%; in [17] it was 10%; in experiment [18], 20%; in experiment [2] it was 20%; in experiment [3], 20%; in experiment [4] it was 80%. The pest or weed control at 8966.8 g/ha in experiment [5] stood at 30%; in experiment [6], 50%; in [7] it was 50%; in [8] it was 20%; in experiment [9], 40%; in experiment [11], 10%. In addition, the pest or weed control at 8966.8 g/ha in experiment [12] turned out to be 20%; in experiment [13], 10%; in experiment [14], 20%; in [15], 10%; in [16], 80%. In addition, the “herbicidal effectiveness / selectivity, in words” value in [10] is on record as “The converse of this relationship”.
With `CNC(=O)Nc1nnc(CC(C)C)s1` [Example 21], the pest or weed control at 8966.8 g/ha stood at 20% in experiment [1]; 60% in experiment [17]; 10% in [18]; 20% in experiment [2]; 100% in experiment [4]; 10% in [5]. The pest or weed control at 8966.8 g/ha in [6] turned out to be 20%; in experiment [7], 60%; in experiment [8] it was 20%; in experiment [9] it was 50%; in experiment [11], 20%; in experiment [12], 30%. Besides, the pest or weed control at 8966.8 g/ha in experiment [13] worked out at 20%; in [14], 30%; in experiment [15], 10%; in experiment [16], 10%. In addition, the “herbicidal effectiveness / selectivity, in words” value in experiment [10] is “more selective when applied to a certain crop or weed species”.
